“Also recorded” adds a separate entry of the source. Read-outs that look alike come from different tables or passages of the source.
What was measured:
FcγRIIa = assay: Phosphorylation of FcγRIIa during platelet activation (immunoprecipitation, Western blot with anti-phosphotyrosine); type: cell-based, human
Method: Whole platelet lysates were prepared by the addition of an equal volume of 2× lysis buffer (2% Nonidet P-40 1, 300 mM NaCl, 50 mM Tris, 2 mM Na3VO4, halt protease and phosphatase inhibitor cocktail [Pierce Biochemicals], ph 7.3) in an ice bath for 30 min. Lysates to be used for immunoprecipitation were pre-cleared of antibodies by the addition of protein G Dynabeads (Invitrogen, Carlsbad, Calif.).
Immunoprecipitation was performed overnight at 4° C. with the use of goat anti-CD32A/C (Santa Cruz Biotechnology, Santa Cruz, Calif.) or a mouse anti-phosphotyrosine conjugated with magnetic beads (4G10, Millipore, Billerica, Mass.). When anti-CD32A/C was used, antigen-antibody complexes were isolated with the use of protein G-coated magnetic beads (Dynabeads, Invitrogen, Carlsbad, Calif.) for 3 hours. Beads with antigen-antibody complexes were washed once with 0.5× lysis buffer and twice with phosphate buffered saline. Proteins were separated from beads in sample buffer before electrophoresis and wet transfer to Immobilon FL membranes (Millipore, Billerica, Mass.). […] Bands were detected with the use of use of a Li-Cor Odyssey Infrared Imaging system (Li-Cor Biosciences, Lincoln, Nebr.) or chemiluminescence (Amersham/General Electric Healthcare, Piscataway, N.J.).

platelets [1] = assay: Platelet activation in whole blood by flow cytometry, binding of PAC-1 (activated GP IIb-IIIa); type: cell-based, human
From the text: Volumes used minimize aggregation of platelets during activation. Activation of platelets was identified by anti-CD62-phycoerythrin (PE, identifies P-selectin) and fluorescein isothiocyanate (FITC)-conjugated PAC-1 (binds to activated GP IIb-IIIa) as described (Serrano F A, et al., Thromb J 2007; 5:7; Schneider D J, et al., Circulation 96:2877-83, 1997; Kabbani S S, et al., Circulation 2001; 104:181-6; Aggarwal A, et al., Am J Kidney Dis 2002; 40:315-22; and Schneider D J, et al., Diabetes Care, 32:944-9, 2009). Platelet expression of FcγRIIa was quantified with the use of anti-CD32-PE. For both assays (activation and quantification of expression of FcγRIIa) PE-Cy5-anti-CD42b was used as an activation independent marker of platelets. […] Fluorochrome labeled antibodies were from Becton Dickinson (San Jose, Calif.). […] Louis, Mo.), and ADP from BioData (Horsham, Pa.). […] J. et al., J Exp Med 1986; 163:826-836). The SRC kinase antagonist PP2 (EMD Biosciences) was dissolved in dimethylsulfoxide (DMSO, Sigma). Tirofiban was obtained from Merck Research Laboratories (Whitehouse Station, N.J.). […] Activation of platelets is reported as the percentage of platelets that bound an activation dependent ligand, a result that we have shown correlates directly with mean fluorescence intensity (Schneider D J, et al., Thromb Haemost 2001; 85:309-13).

platelets [2] = assay: cells; type: cell-based, human; conditions: for fold induction at 0.5 µg/mL: Homo sapiens, Platelet
From the text: Volumes used minimize aggregation of platelets during activation. Activation of platelets was identified by anti-CD62-phycoerythrin (PE, identifies P-selectin) and fluorescein isothiocyanate (FITC)-conjugated PAC-1 (binds to activated GP IIb-IIIa) as described (Serrano F A, et al., Thromb J 2007; 5:7; Schneider D J, et al., Circulation 96:2877-83, 1997; Kabbani S S, et al., Circulation 2001; 104:181-6; Aggarwal A, et al., Am J Kidney Dis 2002; 40:315-22; and Schneider D J, et al., Diabetes Care, 32:944-9, 2009). Platelet expression of FcγRIIa was quantified with the use of anti-CD32-PE. For both assays (activation and quantification of expression of FcγRIIa) PE-Cy5-anti-CD42b was used as an activation independent marker of platelets. […] Fluorochrome labeled antibodies were from Becton Dickinson (San Jose, Calif.). […] Louis, Mo.), and ADP from BioData (Horsham, Pa.). […] J. et al., J Exp Med 1986; 163:826-836). The SRC kinase antagonist PP2 (EMD Biosciences) was dissolved in dimethylsulfoxide (DMSO, Sigma). Tirofiban was obtained from Merck Research Laboratories (Whitehouse Station, N.J.). The reaction mixture was incubated for 15 minutes at room temperature without stirring before platelets were fixed and erythrocytes lysed by addition of Optilyse-C solution (Beckman Coulter). Flow cytometric analysis was performed with the use of a Beckman Coulter FC500 (Miami, Fla.). Platelets were identified on the basis of size (forward and side scatter) and the binding of an activation independent ligand (anti-CD42b). As described, control samples to define a threshold for activation-dependent binding used non-immune IgG (Serrano F A, et al., Thromb J 2007; 5:7; Schneider D J, et al., Circulation 96:2877-83, 1997; Kabbani S S, et al., Circulation 2001; 104:181-6; Aggarwal A, et al., Am J Kidney Dis 2002; 40:315-22; and Schneider D J, et al., Diabetes Care, 32:944-9, 2009). Activation of platelets is reported as the percentage of platelets that bound an activation dependent ligand, a result that we have shown correlates directly with mean fluorescence intensity (Schneider D J, et al., Thromb Haemost 2001; 85:309-13).

[3] = test system: human stem cell derived Megakaryocytes; assay: Expression of FcγRIIa by human stem cell derived megakaryocytes; type: cell-based; conditions: IFNγ treatment; FIG. 11
Megakaryocyte cell line = assay: Expression of FcγRIIa by a megakaryocyte cell line; type: cell-based; conditions: IFNγ treatment; FIG. 10

Molecule: Nc1ncnc2c1ncn2[C@@H]1O[C@H](COP(=O)(O)OP(=O)(O)O)[C@@H](O)[C@H]1O [ADP, adenosine diphosphate]
- time after exposure at which phosphorylation of FcγRIIa was greatest (FcγRIIa; platelets from healthy subjects, thrombin 50 nM, convulxin 10 ng/ml, ADP 25 μM, PAF 100 nM): 3 to 5 min

Molecule: CC(C)(C)n1nc(-c2ccc(Cl)cc2)c2c(N)ncnc21 [PP2]
- effect of PP2 on agonist-induced platelet activation, PAC-1 binding (platelets [1]; PP2 20 μM vs vehicle DMSO, whole blood, healthy subjects n=7, FIG. 6A): inhibited activation induced by each agonist
- effect of PP2 on agonist-induced platelet activation, P-selectin expression (platelets [2]; PP2 20 μM vs vehicle DMSO, whole blood, healthy subjects n=7, FIG. 6B): inhibited activation induced by each agonist
- effect of PP2 on phosphorylation of FcγRIIa during platelet activation (FcγRIIa; PP2 20 μM): prevented phosphorylation

Molecule: CCCCS(=O)(=O)N[C@@H](Cc1ccc(OCCCCC2CCNCC2)cc1)C(=O)O [tirofiban]
- effect of tirofiban on binding of PAC-1 to platelets (platelets [1]; tirofiban 0.5 μg/ml): blocked completely; also recorded: abolished binding of PAC-1
- fold induction at 0.5 µg/mL (platelets [2]; read-out: fold induction of ADP induced platelet activation by added fibrinogen after pretreatment with tirofiban): 1.2 ± 0.1
- fold induction at 0.5 µg/mL (platelets [2]; read-out: fold induction of ADP-induced platelet activation by added Factor XIII after pretreatment with tirofiban): 0.8 ± 0.2
- effect of tirofiban on platelet activation induced by goat anti-FcγRIIa (platelets [2]; tirofiban 0.5 μg/ml, activator goat anti-FcγRIIa): nor did it alter activation
- effect of tirofiban on agonist-induced P-selectin expression (platelets [2]; tirofiban 0.5 μg/ml, n=3 subjects, FIG. 5D): did not attenuate

Molecule: IFNγ: cytokine that increases FcγRIIa expression by megakaryocytes
- effect on expression of FcγRIIa by human stem cell derived Megakaryocytes [3]: increases
- effect on expression of FcγRIIa by a Megakaryocyte cell line (Megakaryocyte cell line): increases

— US11747335B2, “Compositions and methods for assaying platelet reactivity and treatment selection” (University of Vermont And State Agriculture College, priority 2012, dated 2023)
